Data on 14 molecules can be found in patent US10874670B2, “Substituted fused heteroaromatic compounds as kinase inhibitors and the use thereof” (IMPACT THERAPEUTICS, INC., priority 2017, dated 2020).

pIC50: −log10 of the molar value. Read-outs that look alike come from different tables or passages of the source. A value given as a limit tells only on which side of the number the result lay.

In one test the target is ATM enzyme (human) (Homo sapiens, UniProt Q13315). Kind of test: ATM kinase assay (HTRF, GST-cMyc-p53 substrate). In kind it is biochemical. The following applies: for inhibition at 0.01 µM: C 0.01 μm (final concentration of compound); for inhibition at 0.1 µM: C 0.1 μm (final concentration of compound); for inhibition at 1 µM: C 1 μm (final concentration of compound). An outline of the steps:
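Reaction with GST-cMyc-p53 substrate started with Mg/ATP, run 30 minutes at room temperature, then stopped with EDTA. Phospho-p53 (Ser15) detected by HTRF with Eu-labelled anti-phospho antibody and d2 anti-GST, signal as 10000×(Em665/Em620). Duplicates; IC50 from a curve fit with slope factor.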
For orientation: TR-FRET usually uses a lanthanide donor and a delayed reading to cut background.

In test [1] the test system is human breast cancer cell MDA-MB-468. Kind of test: MTT assay, growth of MDA-MB-468 cells. In kind it is cell-based. The note with it: for pIC50: Homo sapiens, MDA-MB-468, 168 h, 7 days, MTT. An outline of the steps:
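MDA-MB-468 cells in RPMI 1640 with 10% FBS were exposed to 8-point compound dilutions (final DMSO 1%) for 7 days at 37 °C, with drug-containing medium renewed on day 4. Viability was read by MTT (0.5 mg/mL, 4 h) absorbance at 552/630/690 nm. IC50 came from a sigmoidal dose-response fit.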
A general note: Tetrazolium assays rely on reduction of a dye to a coloured formazan, in cell work by metabolically active cells.

Test [2] relates to human colon cancer cell SW620. The test is described as follows: MTT assay, growth of SW620 cells, compounds combined with CPT-11. The following applies: for pIC50: Homo sapiens, SW-620, 120 h, combined with CPT-11 (205 nM medium), 5 days, MTT. In kind it is cell-based. An outline of the steps:
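SW620 cells in RPMI 1640/10% FBS were exposed to 8-point compound dilutions (top 10 or 1 μM, 1% DMSO final) plus CPT-11 (205 nM in added medium) for 5 days at 37 °C. Viability by MTT (0.5 mg/mL, 4 h) absorbance; IC50 from sigmoidal fit.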

The mark [3] stands for this setting: 0.5 h, C 0.001 μm (final concentration of compound), read-out: Inh (%) of ATM kinase.
Setting [4] is: 0.5 h, read-out: Inh (%) of ATM kinase.

Sequence of ATM enzyme (human) (Q13315 whole entry): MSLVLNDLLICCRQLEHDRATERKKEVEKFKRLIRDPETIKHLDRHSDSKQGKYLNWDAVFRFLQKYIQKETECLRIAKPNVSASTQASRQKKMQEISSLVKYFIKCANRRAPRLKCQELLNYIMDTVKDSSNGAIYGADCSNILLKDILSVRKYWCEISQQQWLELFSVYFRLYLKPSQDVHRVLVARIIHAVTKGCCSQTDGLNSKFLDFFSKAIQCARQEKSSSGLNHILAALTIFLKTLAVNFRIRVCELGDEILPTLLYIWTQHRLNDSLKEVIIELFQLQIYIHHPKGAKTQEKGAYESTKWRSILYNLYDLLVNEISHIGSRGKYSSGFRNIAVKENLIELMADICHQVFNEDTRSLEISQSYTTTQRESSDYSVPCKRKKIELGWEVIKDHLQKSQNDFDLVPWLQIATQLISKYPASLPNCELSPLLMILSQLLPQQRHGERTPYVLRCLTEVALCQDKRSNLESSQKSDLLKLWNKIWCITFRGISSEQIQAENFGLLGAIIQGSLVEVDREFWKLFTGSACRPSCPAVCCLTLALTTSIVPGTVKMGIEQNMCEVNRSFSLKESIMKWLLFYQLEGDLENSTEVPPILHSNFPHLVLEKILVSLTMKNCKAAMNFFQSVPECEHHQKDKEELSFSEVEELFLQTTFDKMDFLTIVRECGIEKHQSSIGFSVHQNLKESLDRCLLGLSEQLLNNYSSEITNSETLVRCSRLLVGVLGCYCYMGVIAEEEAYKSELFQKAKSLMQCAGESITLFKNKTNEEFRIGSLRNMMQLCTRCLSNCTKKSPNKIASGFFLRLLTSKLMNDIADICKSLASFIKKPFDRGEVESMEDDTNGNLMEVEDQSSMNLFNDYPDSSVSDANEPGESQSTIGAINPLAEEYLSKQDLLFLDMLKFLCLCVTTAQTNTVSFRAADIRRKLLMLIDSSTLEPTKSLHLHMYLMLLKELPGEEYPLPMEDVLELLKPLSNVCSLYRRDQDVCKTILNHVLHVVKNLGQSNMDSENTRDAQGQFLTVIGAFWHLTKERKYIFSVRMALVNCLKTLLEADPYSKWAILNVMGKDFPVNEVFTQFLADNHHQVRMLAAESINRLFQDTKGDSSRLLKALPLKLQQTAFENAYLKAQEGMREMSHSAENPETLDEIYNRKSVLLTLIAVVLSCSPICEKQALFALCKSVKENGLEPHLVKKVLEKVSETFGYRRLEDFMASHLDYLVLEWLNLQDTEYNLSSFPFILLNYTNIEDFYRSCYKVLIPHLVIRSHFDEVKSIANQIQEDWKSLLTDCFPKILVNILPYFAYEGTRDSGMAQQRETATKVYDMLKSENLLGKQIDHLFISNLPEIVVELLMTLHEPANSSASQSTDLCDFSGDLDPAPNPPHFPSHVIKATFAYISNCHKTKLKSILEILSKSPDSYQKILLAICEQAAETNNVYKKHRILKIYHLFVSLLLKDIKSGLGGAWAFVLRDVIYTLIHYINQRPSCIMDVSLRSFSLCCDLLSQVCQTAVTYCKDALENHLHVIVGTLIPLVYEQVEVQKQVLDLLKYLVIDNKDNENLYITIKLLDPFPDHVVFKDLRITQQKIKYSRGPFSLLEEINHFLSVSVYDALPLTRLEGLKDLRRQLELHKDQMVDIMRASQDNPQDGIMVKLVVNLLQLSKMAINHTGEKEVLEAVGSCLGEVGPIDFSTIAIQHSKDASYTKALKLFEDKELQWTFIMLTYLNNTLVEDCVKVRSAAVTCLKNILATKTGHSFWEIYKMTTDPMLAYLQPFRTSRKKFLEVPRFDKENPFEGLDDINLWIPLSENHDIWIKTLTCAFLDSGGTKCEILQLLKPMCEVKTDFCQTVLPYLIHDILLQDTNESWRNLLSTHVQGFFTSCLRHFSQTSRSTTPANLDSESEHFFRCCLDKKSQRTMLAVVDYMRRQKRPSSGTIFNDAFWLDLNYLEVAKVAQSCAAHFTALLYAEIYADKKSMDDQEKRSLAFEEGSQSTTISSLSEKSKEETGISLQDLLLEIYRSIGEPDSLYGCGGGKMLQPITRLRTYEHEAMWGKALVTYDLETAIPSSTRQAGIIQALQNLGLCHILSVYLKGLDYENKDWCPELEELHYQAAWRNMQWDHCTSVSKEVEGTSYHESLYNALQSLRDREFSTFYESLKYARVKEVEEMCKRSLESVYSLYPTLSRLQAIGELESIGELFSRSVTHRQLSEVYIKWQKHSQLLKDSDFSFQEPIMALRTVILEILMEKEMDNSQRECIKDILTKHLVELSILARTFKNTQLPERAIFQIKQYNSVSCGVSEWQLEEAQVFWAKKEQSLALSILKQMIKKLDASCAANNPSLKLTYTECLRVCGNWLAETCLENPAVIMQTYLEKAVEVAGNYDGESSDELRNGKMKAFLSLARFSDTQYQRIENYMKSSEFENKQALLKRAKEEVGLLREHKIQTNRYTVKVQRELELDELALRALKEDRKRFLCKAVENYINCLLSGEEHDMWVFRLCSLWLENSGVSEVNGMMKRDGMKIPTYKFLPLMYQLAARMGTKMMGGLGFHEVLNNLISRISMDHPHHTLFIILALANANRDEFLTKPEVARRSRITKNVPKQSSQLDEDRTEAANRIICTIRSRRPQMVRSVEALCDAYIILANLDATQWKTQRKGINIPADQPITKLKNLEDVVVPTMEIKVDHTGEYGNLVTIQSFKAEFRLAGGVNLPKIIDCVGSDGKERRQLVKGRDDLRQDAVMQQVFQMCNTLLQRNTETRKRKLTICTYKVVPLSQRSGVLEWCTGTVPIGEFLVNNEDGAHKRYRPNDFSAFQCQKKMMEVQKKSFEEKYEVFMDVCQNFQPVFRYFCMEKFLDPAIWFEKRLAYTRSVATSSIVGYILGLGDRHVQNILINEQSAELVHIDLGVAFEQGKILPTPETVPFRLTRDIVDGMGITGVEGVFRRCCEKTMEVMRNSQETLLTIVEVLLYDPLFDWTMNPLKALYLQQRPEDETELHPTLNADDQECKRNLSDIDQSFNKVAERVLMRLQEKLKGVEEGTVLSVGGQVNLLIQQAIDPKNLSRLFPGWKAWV

For the molecule `C[C@@H]1CN(c2nnc3cnc4ccc(-c5ccc(OCCCN(C)C)c(C(F)(F)F)c5)cc4n23)C[C@H](C)N1C` [Example 57, N,N-dimethyl-3-(2-(trifluoromethyl)-4-(1-((3S,5R)-3,4,5-trimethylpiperazin-1-yl)-[1,2,4]triazolo[4,3-a]quinoxalin-8-yl)phenoxy)propan-1-amine], the inhibition at 0.001 µM on ATM enzyme (human) (setting [3]) amounted to 60%. Also, on ATM enzyme (human) (setting [4]), the inhibition at 0.01 µM is 98%, the inhibition at 0.1 µM was determined as 100% and the inhibition at 1 µM worked out at 100%. The inhibition at 0.001 µM on ATM enzyme (human) (at 1 nM, read-out: inhibitory effect on ATM kinase) was over 50%. Moreover, the pIC50 in test [1] is 7.83. Further, in test [1] (MTT assay), the “inhibitory effect on the growth of MDA-MB-468 cells (in words)” value is reported as “comparable to AZD0156”. Moreover, the pIC50 in test [2] is 7.93. Also, the “inhibitory effect on the growth of SW620 cells (in words)” value in test [2] (MTT assay, combined with CPT-11) is listed as “comparable to AZD0156”.
Turning to `C[C@@H]1CN(c2nnc3cnc4ccc(-c5ccc(N6CCC(N(C)C)CC6)cc5)cc4n23)C[C@H](C)N1C` [Example 58, N,N-dimethyl-1-(4-(1-((3S,5R)-3,4,5-trimethylpiperazin-1-yl)-[1,2,4]triazolo[4,3-a]quinoxalin-8-yl)phenyl)piperidin-4-amine], the inhibition at 0.001 µM at ATM enzyme (human) (setting [3]) was found to be 38%. Moreover, at ATM enzyme (human) (setting [4]), the inhibition at 0.01 µM is 89%, the inhibition at 0.1 µM came to 100% and the inhibition at 1 µM was 100%. In test [1], this molecule had a pIC50 of 7.16. Also, in test [2], the pIC50 was 7.32.
On to `CN(C)C1CCN(c2ccc(-c3ccc4ncc5nnc(N6CCC(N(C)C)CC6)n5c4c3)cc2)CC1` [Example 64, 1-(4-(1-(4-(dimethylamino)piperidin-1-yl)-[1,2,4]triazolo[4,3-a]quinoxalin-8-yl)phenyl)-N,N-dimethylpiperidin-4-amine], for which the inhibition at 1 µM at ATM enzyme (human) (setting [4]) was determined as 98%. Further, the pIC50 in test [1] and in test [2] was under 5.00 each time.
As for `CNC1CCN(c2ccc(-c3ccc4ncc5nnc(CN6CCOCC6)n5c4c3)cc2)CC1` [Example 66, N-methyl-1-(4-(1-(morpholinomethyl)-[1,2,4]triazolo[4,3-a]quinoxalin-8-yl)phenyl)piperidin-4-amine], the inhibition at 1 µM on ATM enzyme (human) (setting [4]) came out at 100%. Besides, the pIC50 was 6.37 in test [1] and 6.23 in test [2].
Take `c1ccc(-c2cc3c(cn2)ncc2nnc(C4CCOCC4)n23)cc1` [Example 67, 8-phenyl-1-(tetrahydro-2H-pyran-4-yl)pyrido[3,4-e][1,2,4]triazolo[4,3-a]pyrazine]: at ATM enzyme (human) (setting [4]), the inhibition at 1 µM was determined as 19%. In addition, the pIC50 in test [1] and in test [2] was under 4.00 throughout.
For `CN(C)Cc1ccc(-c2cc3c(cn2)ncc2nnc(C4CCOCC4)n23)cc1` [Example 68, N,N-dimethyl-1-(4-(1-(tetrahydro-2H-pyran-4-yl)pyrido[3,4-e][1,2,4]triazolo[4,3-a]pyrazin-8-yl)phenyl)methanamine], the inhibition at 1 µM at ATM enzyme (human) (setting [4]) was 0%. The pIC50 in test [1] and in test [2] was under 4.00 throughout.
For the molecule `CNC1CCN(c2ccc(-c3cc4c(cn3)ncc3nnc(C5CCOCC5)n34)cc2)CC1` [Example 70, N-methyl-1-(4-(1-(tetrahydropyran-4-yl)pyrido[3,4-e][1,2,4]triazolo[4,3-a]pyrazin-8-yl)phenyl)piperidin-4-amine], the inhibition at 1 µM at ATM enzyme (human) (setting [4]) was found to be 4%. Moreover, the pIC50 in test [1] was under 4.00; in test [2], under 5.00.
Consider `CN(C)C1CCN(c2ccc(-c3cc4c(cn3)ncc3nnc(C5CCOCC5)n34)cc2)CC1` [Example 71, N,N-dimethyl-1-(4-(1-(tetrahydro-2H-pyran-4-yl)pyrido[3,4-e][1,2,4]triazolo[4,3-a]pyrazin-8-yl)phenyl)piperidin-4-amine], for which, on ATM enzyme (human) (setting [4]), the inhibition at 1 µM was found to be 19%. Besides, the pIC50 in test [1] and in test [2] was under 4.00 in each case.
Take `CN(C)C1CCN(c2ccc(-c3ccc4ncc5nnc(C6CCOCC6)n5c4n3)cc2)CC1` [Example 72, N,N-dimethyl-1-(4-(9-(tetrahydro-2H-pyran-4-yl)pyrido[3,2-e][1,2,4]triazolo[4,3-a]pyrazin-2-yl)phenyl)piperidin-4-amine]: the inhibition at 0.001 µM at ATM enzyme (human) (setting [3]) turned out to be 39%. Besides, on ATM enzyme (human) (setting [4]), the inhibition at 0.01 µM is 82%, the inhibition at 0.1 µM is 97% and the inhibition at 1 µM came to 99%. The same molecule showed a pIC50 in test [1] of 6.99. For the same molecule, in test [2], the pIC50 is 7.20.
Regarding `NC1CCN(c2ccc(-c3ccc4ncc5nnc(C6CCOCC6)n5c4n3)cc2)CC1` [Example 73, 1-(4-(9-(tetrahydro-2H-pyran-4-yl)pyrido[3,2-e][1,2,4]triazolo[4,3-a]pyrazin-2-yl)phenyl)piperidin-4-amine], the inhibition at 1 µM at ATM enzyme (human) (setting [4]) amounted to 100%. The pIC50 is 6.68 in test [1] and 6.72 in test [2].
As for `CNC1CCN(c2ccc(-c3ccc4ncc5nnc(C6CCOCC6)n5c4n3)cc2)CC1` [Example 74, N-methyl-1-(4-(9-(tetrahydro-2H-pyran-4-yl)pyrido[3,2-e][1,2,4]triazolo[4,3-a]pyrazin-2-yl)phenyl)piperidin-4-amine], at ATM enzyme (human) (setting [4]), the inhibition at 0.01 µM was found to be 66%, the inhibition at 0.1 µM was 96% and the inhibition at 1 µM was found to be 100%. In test [1], this molecule showed a pIC50 of 6.52. Also, the pIC50 in test [2] was 6.70.
Take `CCNC1CCN(c2ccc(-c3ccc4ncc5nnc(C6CCOCC6)n5c4n3)cc2)CC1` [Example 75, N-ethyl-1-(4-(9-(tetrahydro-2H-pyran-4-yl)pyrido[3,2-e][1,2,4]triazolo[4,3-a]pyrazin-2-yl)phenyl)piperidin-4-amine]: at ATM enzyme (human) (setting [4]), the inhibition at 1 µM turned out to be 100%. Moreover, the pIC50 in test [1] was 6.78; in test [2], 6.80.
In the case of `CN(C)C1CCN(c2ccc(-c3ccc4ncc5nnc(C6CCOCC6)n5c4n3)cn2)CC1` [Example 76, N,N-dimethyl-1-(5-(9-(tetrahydro-2H-pyran-4-yl)pyrido[3,2-e][1,2,4]triazolo[4,3-a]pyrazin-2-yl)pyridin-2-yl)piperidin-4-amine], the inhibition at 1 µM on ATM enzyme (human) (setting [4]) was found to be 100%. The pIC50 was 6.58 in test [1] and 6.09 in test [2].
In the case of `CNC1CCN(c2ccc(-c3ccc4ncc5nnc(CN6CCOCC6)n5c4n3)cc2)CC1` [Example 77, N-methyl-1-(4-(9-(morpholinomethyl)pyrido[3,2-e][1,2,4]triazolo[4,3-a]pyrazin-2-yl)phenyl)piperidin-4-amine], the inhibition at 1 µM on ATM enzyme (human) (setting [4]) worked out at 97%. Besides, the pIC50 in test [1] was 6.03; in test [2], 5.99.

One may read the pIC50 as −log10 of the IC50, conventionally taken in molar units.
